Reference: ChEMBL document CHEMBL1141243, “Antioxidant and cytotoxic activities of xanthones from Cudrania tricuspidata” (Bioorg Med Chem Lett, 2005)
Calls of active or inactive are those of the source. The calls are words filed in the database; no cut-off is given here.

Columns and labels:
[1] = test system: Radical scavenging activity; experiment: DPPH radical scavenging activity of Cudriana tricuspidata extracts; type: functional, Maclura tricuspidata
[2] = test system: Radical scavenging activity; experiment: Superoxide radical scavenging activity of Cudriana tricuspidata extracts; type: functional, Maclura tricuspidata
[3] = test system: Radical scavenging activity; experiment: Hydroxyl radical scavenging activity of Cudriana tricuspidata extracts; type: functional
HT-29 = experiment: Cytotoxicity against human cancer HT29 cell line by MTT assay; type: functional; conditions: read-out: LD50 (the source's name)
SK-OV-3 = experiment: Cytotoxicity against human cancer SKOV3 cell line by MTT assay; type: functional; conditions: read-out: LD50 (the source's name)
A549 = experiment: Cytotoxicity against human cancer A549 cell line by MTT assay; type: functional; conditions: read-out: LD50 (the source's name)
AGS = experiment: Cytotoxicity against human cancer AGS cell line by MTT assay; type: functional; conditions: read-out: LD50 (the source's name)
HL-60 [4] = experiment: Cytotoxicity against human cancer HL60 cell line by MTT assay; type: functional; conditions: read-out: LD50 (the source's name)
HL-60 [5] = experiment: Cytotoxic activity in HL60 by DNA fragmentation assay; type: functional, cell-based; conditions: Homo sapiens

Row | SMILES | IC50 [1] [µM] | IC50 [2] [µM] | IC50 [3] [µM] | CC50 (HT-29) [µM] | CC50 (SK-OV-3) [µM] | CC50 (A549) [µM] | CC50 (AGS) [µM] | CC50 (HL-60 [4]) [µM] | Activity (HL-60 [5])
1 | Cc1c(C)c2c(c(C)c1O)CCC(C)(C(=O)O)O2 (stereo not given) [TROLOX] | 10.6 | 33.6 | 48.2 | – | – | – | – | – | –
2 | COc1cccc2c1C(=O)c1c(O)c3c(c(O)c1C2=O)C[C@@](O)(C(=O)CO)C[C@@H]3O[C@H]1C[C@H](N)[C@H](O)[C@H](C)O1 [DOXORUBICIN] | – | – | – | 1.8 | 14.2 | 1.3 | 1.2 | 1.1 | –
3 | CC(C)=CCc1c(O)c(O)cc2c(=O)c3c(O)c4c(cc3oc12)OC(C)C4(C)C (stereo not given) [CUDRAXANTHONE M] | 10.4 | 26 | 42.6 | 12.1 | 14.6 | 11.8 | 4.1 | 8.2 | Active
4 | C=CC(C)(C)c1c(O)cc2oc3c(CC=C(C)C)c(O)c(O)cc3c(=O)c2c1O [CUDRAXANTHONE L] | 13.7 | 23.6 | 50.3 | 11.4 | 38 | 33.5 | 3.9 | 8.6 | Active
5 | C=CC(C)(C)c1c(O)c(CC=C(C)C)c2oc3cc(O)c(O)cc3c(=O)c2c1O [MACLURAXANTHONE B] | 15.4 | 47.8 | 74.1 | 28 | 23.1 | 25.8 | 15.2 | 29.5 | Active
6 | C=CC(C)(C)c1c(O)cc(O)c2c(=O)c3c(CC=C(C)C)c(OC)c(O)cc3oc12 [CUDRAXANTHONE C] | > 200 | 85.1 | 24.3 | 50.7 | 73.5 | 61.7 | 49.5 | 40.8 | Active
7 | C=CC(C)(C)c1c(OC)cc(O)c2c(=O)c3ccc(O)c(O)c3oc12 [ISOCUDRANIAXANTHONE B] | 31.8 | 29.5 | 101 | 65 | 71.3 | 57.8 | 43.9 | 45.2 | Active
8 | C=CC(C)(C)c1c(OC)cc(O)c2c(=O)c3c(CC=C(C)C)c(O)c(O)cc3oc12 [CUDRAXANTHONE D] | 17.4 | 92.8 | 25.2 | 20.7 | 23.8 | 16.3 | 4.7 | 6.2 | Active
9 | C=CC(C)(C)c1c(O)cc(O)c2c(=O)c3cc(O)c4c(c3oc12)C=CC(C)(C)O4 | > 200 | 64.5 | 55.5 | 46.3 | 70.4 | 61.9 | 44.7 | 35.9 | Active
10 | C=CC(C)(C)c1c(O)cc(O)c2c(=O)c3c(CC=C(C)C)c(O)c(O)cc3oc12 [CUDRATRICUSXANTHONE A] | 21.3 | 51 | 21.2 | 41.4 | 43.2 | 45.8 | 32.8 | 32.8 | Active
